From ChEMBL document CHEMBL3792279, “Design, synthesis, and evaluation of hinge-binder tethered 1,2,3-triazolylsalicylamide derivatives as Aurora kinase inhibitors” (Bioorg Med Chem, 2016)

Experiments:
Aurora kinase A = target: T1, Aurora kinase A (Homo sapiens, UniProt O14965); test: Inhibition of human Aurora A using H-LRRASLG as substrate after 2 hrs by HotSpot assay in presence of 33P-ATP and 10 uM ATP
T1 sequence (O14965 whole entry): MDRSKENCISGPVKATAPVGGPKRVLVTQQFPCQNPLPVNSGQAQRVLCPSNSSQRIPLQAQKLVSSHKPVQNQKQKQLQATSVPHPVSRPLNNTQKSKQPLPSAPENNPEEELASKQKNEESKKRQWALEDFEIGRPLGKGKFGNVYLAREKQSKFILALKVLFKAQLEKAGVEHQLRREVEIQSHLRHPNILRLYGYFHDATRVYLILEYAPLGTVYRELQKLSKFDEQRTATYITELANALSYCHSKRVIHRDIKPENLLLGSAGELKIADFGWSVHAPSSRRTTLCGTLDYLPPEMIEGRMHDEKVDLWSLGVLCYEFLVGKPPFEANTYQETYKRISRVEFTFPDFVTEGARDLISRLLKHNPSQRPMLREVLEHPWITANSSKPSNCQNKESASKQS

Aurora kinase B = Aurora kinase B (Homo sapiens, UniProt Q96GD4); test: Inhibition of human Aurora B using H-LRRASLG as substrate after 2 hrs by HotSpot assay in presence of 33P-ATP and 10 uM ATP
Aurora kinase B, sequence (Q96GD4 whole entry): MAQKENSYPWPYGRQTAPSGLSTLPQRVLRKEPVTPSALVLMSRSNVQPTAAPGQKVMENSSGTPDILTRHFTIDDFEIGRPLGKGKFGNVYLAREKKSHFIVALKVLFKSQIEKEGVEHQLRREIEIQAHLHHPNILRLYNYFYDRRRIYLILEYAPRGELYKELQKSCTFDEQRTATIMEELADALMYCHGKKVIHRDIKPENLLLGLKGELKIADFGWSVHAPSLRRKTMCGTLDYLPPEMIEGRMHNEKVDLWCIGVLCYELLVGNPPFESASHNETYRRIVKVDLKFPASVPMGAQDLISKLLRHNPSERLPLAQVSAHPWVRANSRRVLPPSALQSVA

Compound | IC50 (Aurora kinase A) | IC50 (Aurora kinase B)
COC(=O)c1cccc(NC(=O)c2cc(-n3cc(-c4cc(OC)cc(OC)c4)nn3)ccc2O)c1 | 0.768 µM | 5.94 µM
COC(=O)c1cccc(NC(=O)c2cc(-n3cc(CNc4ccccc4)nn3)ccc2O)c1 | 5.15 µM | 36.5 µM
COC(=O)c1cccc(NC(=O)c2cc(-n3cc(CNc4cc(C)[nH]n4)nn3)ccc2O)c1 | 13.7 µM | 49.5 µM
COC(=O)c1cccc(NC(=O)c2cc(-n3cc(CNc4nc5ccccc5o4)nn3)ccc2O)c1 | 3.52 µM | 10.2 µM
COC(=O)c1cccc(NC(=O)c2cc(-n3cc(CCNc4ncnc5ccsc45)nn3)ccc2O)c1 | 2.97 µM | 0.364 µM
COC(=O)c1cccc(NC(=O)c2cc(-n3cc(CNc4cc(C)ccn4)nn3)ccc2O)c1 | 6.07 µM | 16.3 µM
COC(=O)c1cccc(NC(=O)c2cc(-n3cc(CCNc4ncccn4)nn3)ccc2O)c1 | 7.67 µM | 15.2 µM
COC(=O)c1cccc(NC(=O)c2cc(-n3cc(CNc4ccccn4)nn3)ccc2O)c1 | 6.43 µM | 32.1 µM
COC(=O)c1cccc(NC(=O)c2cc(-n3cc(-c4ccc5c(c4)OCO5)nn3)ccc2O)c1 | 0.638 µM | 2.19 µM
COC(=O)c1cccc(NC(=O)c2cc(-n3cc(-c4ccc5nccnc5c4)nn3)ccc2O)c1 | 0.607 µM | 7.3 µM
COC(=O)c1cccc(NC(=O)c2cc(-n3cc(CNc4ncnc5ccsc45)nn3)ccc2O)c1 | 0.801 µM | 20.1 µM
COC(=O)c1cccc(NC(=O)c2cc(-n3cc(CNc4ncccn4)nn3)ccc2O)c1 | 15.4 µM | 40.7 µM
COC(=O)c1cccc(NC(=O)c2cc(-n3cc(CNc4cc(C)on4)nn3)ccc2O)c1 | 12.4 µM | 54.8 µM
COC(=O)c1cccc(NC(=O)c2cc(-n3cc(-c4cccc([N+](=O)[O-])c4)nn3)ccc2O)c1 | 0.284 µM | 1.33 µM
